# Target: T1, hamster SUR1 (Cricetus cricetus, UniProt Q09427)
# T1 construct: expressed in transfected cells; host or cells: COS-1 cells, transient transfection (pcDNA vector), membrane preparation
# Experiment: Competitive binding to sulfonylurea and KCO sites of SUR1 ([3H]glibenclamide displacement, COS-cell membranes)
# Conditions: SUR1 versus SUR2 selectivity, in words
# Procedure: Competitive binding experiments were performed to characterize the affinity of the test compounds for the binding sites for sulfonylureas and KATP channel openers (=KCOs) on hamster SUR1. To assess the affinity for the sulfonylurea site membranes from COS-cells transiently expressing hamster SUR1 were incubated in the presence of [^3H]glibenclamide with increasing concentrations of test compounds. […] Per curve 9-15 distinct concentrations were tested covering the relevant range. All measurements were repeated at least 5 times in independent experiments.
# [^3H]glibenclamide (specific activity 51 Ci mmol^−1) was obtained from NEN (Dreieich, Germany). If suitable, stock solutions were prepared in dimethylsulfoxide with a final solvent concentration in the media below 1%.
# SUR- or Kir6.x isoforms were used either subcloned in the pcDNA (hamster SUR1, mouse Kir6.2) or pCMV vector (rat SUR2A, SUR2B).
# For transfection the cells were incubated 4 hours in a Tris-buffered salt solution containing DNA (5-10 μg/ml) plus DEAE-dextran (1 mg/ml), 2 min in HEPES-buffered salt solution plus dimethylsulfoxide (10%) and 4 hours in DMEM-HG plus chloroquine (100 μM). Cells were then returned to DMEM-HG plus 10% FCS. […] For binding experiments resuspended membranes (final protein concentration 5-50 μg/ml) were incubated in “Tris-buffer” (50 mM, pH 7.4) containing either [^3H]glibenclamide (final concentration 0.3 nM or 3 nM and nonspecific binding defined by 100 nM or 1 μM glibenclamide for SUR1 or SUR2Y1205S-isoforms, respectively) or [^3H]P1075 (final concentration 3 nM, nonspecific binding defined by 100 μM pinacidil) and increasing concentrations of the test compounds. […] Incubations were carried out for 1 h at room temperature and were terminated by rapid filtration through Whatman GF/B filters.
# The inhibition constant (Ki value) of the test substances was calculated from the respective IC50 value, and was stated as the negative logarithmised value thereof (pKi).
# T1 sequence (Q09427 whole entry): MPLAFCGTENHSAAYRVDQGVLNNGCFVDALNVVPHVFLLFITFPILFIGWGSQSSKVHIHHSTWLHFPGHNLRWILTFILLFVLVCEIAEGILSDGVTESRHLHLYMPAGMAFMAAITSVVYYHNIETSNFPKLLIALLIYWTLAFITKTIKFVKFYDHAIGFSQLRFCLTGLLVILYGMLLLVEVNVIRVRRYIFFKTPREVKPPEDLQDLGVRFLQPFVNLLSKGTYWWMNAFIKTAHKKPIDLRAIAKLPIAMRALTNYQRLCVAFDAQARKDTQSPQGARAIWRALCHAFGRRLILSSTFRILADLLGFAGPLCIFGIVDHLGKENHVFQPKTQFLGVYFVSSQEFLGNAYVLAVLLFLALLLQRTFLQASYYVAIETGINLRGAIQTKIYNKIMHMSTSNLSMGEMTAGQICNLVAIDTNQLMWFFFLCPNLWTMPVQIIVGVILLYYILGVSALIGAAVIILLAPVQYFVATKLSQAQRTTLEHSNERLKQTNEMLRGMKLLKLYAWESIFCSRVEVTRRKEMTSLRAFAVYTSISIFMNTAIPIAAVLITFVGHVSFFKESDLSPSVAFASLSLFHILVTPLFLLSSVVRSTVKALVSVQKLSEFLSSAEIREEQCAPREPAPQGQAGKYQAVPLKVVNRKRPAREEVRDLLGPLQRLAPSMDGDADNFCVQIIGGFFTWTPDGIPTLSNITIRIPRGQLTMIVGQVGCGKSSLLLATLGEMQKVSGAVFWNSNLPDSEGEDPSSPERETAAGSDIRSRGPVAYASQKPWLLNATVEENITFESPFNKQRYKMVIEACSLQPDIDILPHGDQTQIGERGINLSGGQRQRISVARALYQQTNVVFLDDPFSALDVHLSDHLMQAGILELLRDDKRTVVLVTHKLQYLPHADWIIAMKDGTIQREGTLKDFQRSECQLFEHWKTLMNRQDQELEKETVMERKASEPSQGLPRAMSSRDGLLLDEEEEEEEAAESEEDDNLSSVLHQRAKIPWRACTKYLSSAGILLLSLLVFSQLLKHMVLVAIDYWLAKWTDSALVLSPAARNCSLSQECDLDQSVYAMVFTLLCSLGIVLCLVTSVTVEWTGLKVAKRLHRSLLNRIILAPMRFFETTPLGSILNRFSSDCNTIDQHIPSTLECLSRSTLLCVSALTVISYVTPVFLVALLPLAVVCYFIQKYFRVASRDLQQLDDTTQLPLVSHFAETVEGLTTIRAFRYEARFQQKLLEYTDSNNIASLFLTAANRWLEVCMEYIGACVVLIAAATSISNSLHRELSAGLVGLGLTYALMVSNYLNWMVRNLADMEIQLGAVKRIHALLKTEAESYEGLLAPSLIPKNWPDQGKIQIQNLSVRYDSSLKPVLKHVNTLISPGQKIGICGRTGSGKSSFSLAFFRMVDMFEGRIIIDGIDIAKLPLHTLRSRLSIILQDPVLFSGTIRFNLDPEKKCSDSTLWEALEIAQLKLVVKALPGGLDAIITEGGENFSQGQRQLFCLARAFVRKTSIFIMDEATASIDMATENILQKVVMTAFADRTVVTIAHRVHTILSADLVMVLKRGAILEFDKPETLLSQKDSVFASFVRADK
row,SMILES,pki (SUR1) compared with pki (SUR2)
1,"CS(=O)(=O)C(=C1CN(C(c2ccc(Cl)cc2)c2ccc(Cl)cc2)C1)c1cc(F)cc(F)c1 [1-[bis(4-chlorophenyl)methyl]-3-[(3,5-difluorophenyl)(methylsulfonyl)-methylene]azetidine]",pki (SUR1) larger than pki (SUR2)
2,"CCC1CN=C(N2CC(c3ccccc3)C(c3ccc(Cl)cc3)=N2)O1 (stereo not drawn) [2-[3-(4-chlorophenyl)-4-phenyl-4,5-dihydro-1H-pyrazol-1-yl]-5-ethyl-4,5-dihydro-1,3-oxazole]",pki (SUR1) larger than pki (SUR2)
3,"O=C(NS(=O)(=O)c1ccc(Cl)cc1)c1cc(-c2ccc(Br)cc2)n(-c2ccc(Cl)cc2Cl)n1 [5-(4-bromophenyl)-N-[(4-chlorophenyl)sulfonyl]-1-(2,4-dichlorophenyl)-1H-pyrazole-3-carboxamide]",pki (SUR1) larger than pki (SUR2)
4,"O=C(NN1CCCCC1)c1nn(-c2ccc(Cl)cc2Cl)c2c1CCCc1cc(Cl)ccc1-2 [8-chloro-1-(2,4-dichlorophenyl)-N-piperidin-1-yl-1,4,5,6-tetrahydrobenzo[6,7]cyclohepta[1,2-c]pyrazole-3-carboxamide]",pki (SUR1) larger than pki (SUR2)
5,"CN(C)S(=O)(=O)N=C(NCCF)N1CC(c2ccccc2)C(c2ccc(Cl)cc2)=N1 (stereo not drawn) [3-(4-chlorophenyl)-N′-[(dimethylamino)sulfonyl]-N-(2-fluoro-ethyl)-4-phenyl4,5-dihydro-1H-pyrazole-1-carboximidamide]",pki (SUR1) larger than pki (SUR2)
6,"N[C@@H](Cc1ccc(Cl)c(Cl)c1)C(=O)N1CC(c2ccccc2)C(c2ccc(Cl)cc2)=N1 (stereo partly drawn) [(2S)-1-[3-(4-chlorophenyl)-4-phenyl-4,5-dihydro-1H-pyrazol-1-yl]-3-(3,4-dichloro-phenyl)-1-oxopropan-2-amine]",pki (SUR1) larger than pki (SUR2)
7,"O=C1c2ccccc2S(=O)(=O)N1C1CN(C(c2ccc(Cl)cc2)c2ccc(Cl)cc2)C1 [2-{1-[bis(4-chlorophenyl)methyl]azetidin-3-yl}-1,2-benzisothiazol-3(2H)-one 1,1-dioxide]",pki (SUR1) larger than pki (SUR2)
8,"CN1CCC(CNC(=NS(=O)(=O)c2ccc(Cl)cc2)N2CC(c3ccccc3)C(c3ccc(Cl)cc3)=N2)C1 (stereo not drawn) [3-(4-chlorophenyl)-N′-[(4-chlorophenyl)sulfonyl]-N-[(1-methylpyrrolidin-3-yl)-methyl]-4-phenyl-4,5-dihydro-1H-pyrazole-1-carboximidamide]",pki (SUR1) larger than pki (SUR2)
9,"CCCCCCC(C)(C)c1ccc([C@@H]2C[C@H](O)CC[C@H]2CCCO)c(O)c1 [5-(1,1-dimethylheptyl)-2-[(1R,2R,5R)-5-hydroxy-2-(3-hydroxypropyl)cyclohexyl]-phenol]",pki (SUR1) larger than pki (SUR2)
10,"CCN(CC)C(=O)c1cn(-c2ccc(Cl)cc2)c(-c2ccc(Cl)cc2Cl)n1 [1-(4-chlorophenyl)-2-(2,4-dichlorophenyl)-N,N-diethyl-1H-imidazole-4-carboxamide]",pki (SUR1) larger than pki (SUR2)
11,"CNC(=NS(=O)(=O)N1CCOCC1)N1CC(c2ccccc2)C(c2ccc(Cl)cc2)=N1 (stereo not drawn) [3-(4-chlorophenyl)-N-methyl-N′-(morpholin-4-ylsulfonyl)-4-phenyl-4,5-dihydro-1H-pyrazole-1-carboximidamide]",pki (SUR1) larger than pki (SUR2)
12,"CCCCCNC(=O)c1nc(-c2ccc(Cl)cc2Cl)n(-c2ccc(Br)cc2)c1CC [1-(4-bromophenyl)-2-(2,4-dichlorophenyl)-5-ethyl-N-pentyl-1H-imidazole-4-carboxamide]",pki (SUR1) larger than pki (SUR2)
13,"CNC(=NS(=O)(=O)N1CCOCC1)C1=NN(c2ccc(Cl)cc2Cl)C(c2ccccc2)C1 (stereo not drawn) [1-(2,4-dichlorophenyl)-N-methyl-N′-(morpholin-4-ylsulfonyl)-5-phenyl-4,5-dihydro-1H-pyrazole-3-carboximidamide]",pki (SUR1) larger than pki (SUR2)
14,"CSc1c(C(=O)NC2CCCCC2)nc(-c2ccc(Cl)cc2Cl)n1-c1ccc(Cl)cc1 [1-(4-chlorophenyl)-N-cyclohexyl-2-(2,4-dichlorophenyl)-5-(methylthio)-1H-imidazole-4-carboxamide]",pki (SUR1) larger than pki (SUR2)
15,"CCCCC(C)(O)c1nc(-c2ccc(Cl)cc2Cl)n(-c2ccc(Cl)cc2)c1C (stereo not drawn) [2-[1-(4-chlorophenyl)-2-(2,4-dichlorophenyl)-5-methyl-1H-imidazol-4-yl]hexan-2-ol]",pki (SUR1) larger than pki (SUR2)
16,"NC(=NS(=O)(=O)c1ccc(Cl)cc1)N1C[C@H](c2ccccc2)C(c2ccc(Cl)cc2)=N1 [(4S)-3-(4-chlorophenyl)-N′-[(4-chlorophenyl)sulfonyl]-4-phenyl-4,5-dihydro-1H-pyrazole-1-carboximidamide]",pki (SUR1) larger than pki (SUR2)
17,"O=S(=O)(N=C(NCc1cccnc1)N1CC(c2ccccc2)C(c2ccc(Cl)cc2)=N1)c1ccc(Cl)cc1 (stereo not drawn) [3-(4-chlorophenyl)-N′-[(4-chlorophenyl)sulfonyl]-4-phenyl-N-(pyridin-3-ylmethyl)-4,5-dihydro-1H-pyrazole-1-carboximidamide]",pki (SUR1) larger than pki (SUR2)
18,"Cc1c(NC(=O)c2ccccc2)nc(-c2ccc(Cl)cc2Cl)n1-c1ccc(Cl)cc1 [N-[1-(4-chlorophenyl)-2-(2,4-di-chlorophenyl)-5-methyl-1H-imidazol-4-yl]benzamide]",pki (SUR1) larger than pki (SUR2)
19,"NC(=NS(=O)(=O)c1ccc(Cl)cc1)N1CC(c2ccccc2)C(c2ccc(Cl)cc2)=N1 (stereo not drawn) [3-(4-chlorophenyl)-N′-[(4-chlorophenyl)sulfonyl]-4-phenyl-4,5-dihydro-1H-pyrazole-1-carboximidamide]",pki (SUR1) larger than pki (SUR2)
20,"CCCCCc1nc(-c2ccc(Cl)cc2Cl)n(-c2ccc(Cl)cc2)c1C [1-(4-chlorophenyl)-2-(2,4-dichlorophenyl)-5-methyl-4-pentyl-1H-imidazole]",pki (SUR1) larger than pki (SUR2)
21,"CCc1c(C(=O)NN2CCCCC2)nc(-c2ccc(Cl)cc2Cl)n1-c1ccc(Br)cc1 [1-(4-bromophenyl)-2-(2,4-dichloro-phenyl)-5-ethyl-N-piperidin-1-yl-1H-imidazole-4-carboxamide]",pki (SUR1) larger than pki (SUR2)
22,"CNC(=NS(=O)(=O)c1ccc(Cl)cc1)N1CC(c2cccnc2)C(c2ccc(Cl)cc2)=N1 (stereo not drawn) [3-(4-chlorophenyl)-N′-[(4-chlorophenyl)sulfonyl]-N-methyl-4-pyridin-3-yl-4,5-dihydro-1H-pyrazole-1-carboximidamide]",pki (SUR1) larger than pki (SUR2)
23,"CNC(=NS(=O)(=O)N(C)C)N1CC(c2cccc(F)c2)C(c2ccc(Cl)cc2)=N1 (stereo not drawn) [3-(4-chlorophenyl)-N′-[(dimethyl-amino)sulfonyl]-4-(3-fluorophenyl)-N-methyl-4,5-dihydro-1H-pyrazole-1-carboximidamide]",pki (SUR1) larger than pki (SUR2)
24,"CNC(=NS(=O)(=O)N1CCCCC1)C1=NN(c2ccc(Cl)cc2)C(c2ccccc2)C1 (stereo not drawn) [1-(4-chlorophenyl)-N-methyl-5-phenyl-N′-(piperidin-1-yl-sulfonyl)-4,5-dihydro-1H-pyrazole-3-carboximidamide]",pki (SUR1) larger than pki (SUR2)

# — US8058264B2, “Pharmaceutical compositions comprising CB1 cannabinoid receptor antagonists and potassium channel openers for the treatment of obesity and related conditions” (Abbott Products GmbH, priority 2004, dated 2011)
